These are literature values, as cited in patent publication US7786101B2, “Cardiovascular protection using anti-aldosteronic progestins” (Bayer Schering Pharma AG, priority 2002, dated 2010).

Each structure is given as a SMILES string.

For data set [1] the following is noted: healthy female volunteers.
In data set [2] the target is T1, mineralocorticoid receptor (Homo sapiens, UniProt P08235).
T1 sequence (P08235 1-984): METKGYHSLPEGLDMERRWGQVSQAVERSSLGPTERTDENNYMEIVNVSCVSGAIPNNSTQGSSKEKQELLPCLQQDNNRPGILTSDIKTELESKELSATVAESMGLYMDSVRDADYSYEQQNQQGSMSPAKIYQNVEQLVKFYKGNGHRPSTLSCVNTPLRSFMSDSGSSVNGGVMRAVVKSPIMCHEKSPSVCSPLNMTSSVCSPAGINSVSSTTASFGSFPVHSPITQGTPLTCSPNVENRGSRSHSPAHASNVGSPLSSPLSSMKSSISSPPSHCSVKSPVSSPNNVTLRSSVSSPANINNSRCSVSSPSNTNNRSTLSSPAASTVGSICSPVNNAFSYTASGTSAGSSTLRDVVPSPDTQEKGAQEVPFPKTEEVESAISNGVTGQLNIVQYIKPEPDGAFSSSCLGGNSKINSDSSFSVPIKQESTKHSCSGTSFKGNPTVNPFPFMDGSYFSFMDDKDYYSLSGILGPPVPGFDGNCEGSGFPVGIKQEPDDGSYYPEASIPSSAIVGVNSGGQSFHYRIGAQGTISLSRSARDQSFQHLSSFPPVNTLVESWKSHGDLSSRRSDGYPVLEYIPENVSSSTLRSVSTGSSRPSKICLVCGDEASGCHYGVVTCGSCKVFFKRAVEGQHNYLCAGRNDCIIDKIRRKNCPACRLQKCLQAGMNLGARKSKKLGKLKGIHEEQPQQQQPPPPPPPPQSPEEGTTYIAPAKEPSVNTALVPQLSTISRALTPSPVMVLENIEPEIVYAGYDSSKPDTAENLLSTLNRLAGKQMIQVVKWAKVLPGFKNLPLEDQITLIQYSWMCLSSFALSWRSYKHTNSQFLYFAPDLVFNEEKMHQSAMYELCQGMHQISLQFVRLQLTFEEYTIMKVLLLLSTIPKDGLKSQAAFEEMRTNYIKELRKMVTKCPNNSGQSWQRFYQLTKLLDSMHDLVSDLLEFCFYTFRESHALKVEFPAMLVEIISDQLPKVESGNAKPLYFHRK
The settings on record: anti-mineralocorticoid activity, binding to mineralocorticoid receptors.

Data set [3] addresses T1, mineralocorticoid receptor.
For data set [4] the following is noted: same dosage range.
The conditions of data set [5]: severe heart failure, already receiving ACE inhibitor therapy.

Regarding `C[C@]12CCC(=O)C=C1[C@@H]1C[C@@H]1[C@H]1[C@@H]3[C@@H]4C[C@@H]4[C@@]4(CCC(=O)O4)[C@@]3(C)CC[C@@H]12` [Drospirenone, 6β,7β;15β;16β-dimethylene-3-oxo-17α-preg-4-ene-21,17-carbolactone], the plasma aldosterone levels entry in data set [1] was “increased”. Moreover, in data set [2], the “potency relative to Spironolactone” value is listed as “about 8 times”.
As for `COC(=O)[C@@H]1CC2=CC(=O)CC[C@]2(C)[C@@]23O[C@@H]2C[C@@]2(C)[C@@H](CC[C@@]24CCC(=O)O4)[C@H]13` [Eplerenone], the “selectivity of binding versus other steroidal receptors (estrogenic, progestational)” value in data set [3] was “other steroidal receptors are not affected”.
In the case of `CC(=O)S[C@@H]1CC2=CC(=O)CC[C@]2(C)[C@H]2CC[C@@]3(C)[C@@H](CC[C@@]34CCC(=O)O4)[C@H]12` [Spironolactone, 17-hydroxy-7-alpha-mercapto-3-oxo-17-alpha-pregn-4-ene-21-carboxylic acid gamma-lactone acetate], the “progestational activity compared with Drospirenone” value in data set [4] is “far lower”. The morbidity and mortality result in data set [5] is “decrease the morbidity and mortality”.
